This is an account of results in ChEMBL document CHEMBL1201862, “PubChem BioAssay data set” (2004).

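Interpolation was linear, between the two tested concentrations surrounding the appropriate level; five concentrations were tested over 48 hours in 96-well plates. The concentration for 50% growth inhibition is given as GI50.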 Activity calls are given as the source filed them. Rule as the data show it: active = GI50 up to about 1.1 µM and inactive = higher. Bounds are passed on as bounds.

Some test systems named below: DLD-1; DMS-273; RXF 631; HOP-18; DMS-114; SNB-78; KM-20L2; XF498.
Holding throughout (test): inhibition of tumour cell growth, NCI panel, 48 h

Take `CCCCCCCCCCCCCCCCCC(=O)NCC(COP(=O)([O-])OCC[N+](C)(C)C)OC` (configuration not stated): the GI50 is 2.59 µM (inactive) with DLD-1; 1.58 µM (inactive) with DMS-273; 13.4 µM (inactive) in the assay on RXF 631; 3.78 µM (inactive) in the assay with HOP-18; 10.6 µM (inactive) in the assay with DMS-114; 4.3 µM (inactive) in the assay with SNB-78. Besides, the GI50 was 2.23 µM (inactive) in the assay with KM-20L2 and 2.71 µM (inactive) with XF498.
For the molecule `CSC(=S)N/N=C/c1nccc2ccccc12`, the GI50 was 0.537 µM (active) in the assay with DLD-1; 1.85 µM (inactive) in the assay on DMS-273; 4.69 µM (inactive) in the assay with RXF 631; 1.82 µM (inactive) with HOP-18; 0.627 µM (active) with DMS-114; 3.18 µM (inactive) in the assay with SNB-78. Also, the GI50 with KM-20L2 was 0.43 µM (active); in the assay with XF498, 0.809 µM (active).
Take `CCCC(O)[C@@H](O)c1ccc2c(c1O)C(=O)c1c(OC)cccc1C2=O` (some centres not stated): the GI50 is 36.9 µM (inactive) in the assay on DLD-1; 35.5 µM (inactive) in the assay with DMS-273; 28.2 µM (inactive) in the assay with RXF 631; 50.8 µM (inactive) with HOP-18; 26.2 µM (inactive) in the assay with DMS-114; 36.6 µM (inactive) with SNB-78. Besides, the GI50 is 50.9 µM (inactive) in the assay with KM-20L2 and 20.2 µM (inactive) in the assay with XF498.
With `O=C(CCC(=O)Nc1cccc(C(F)(F)F)c1)CC(=O)c1ccc2ccccc2c1`, the GI50 in the assay on DLD-1, in the assay on DMS-273, with RXF 631, in the assay with HOP-18, with DMS-114 and in the assay with SNB-78 was > 100 µM (inactive) each time. Also, the GI50 in the assay with KM-20L2 and in the assay with XF498 was > 100 µM (inactive) in each case.
Regarding `COc1cc(C(=O)C/C(CCC(=O)Nc2ccccc2[N+](=O)[O-])=N\NC(N)=O)ccc1O`, the GI50 in the assay with DMS-273 was > 100 µM (inactive); in the assay with RXF 631 it was > 100 µM (inactive); with HOP-18, 89.1 µM (inactive); in the assay on DMS-114, > 100 µM (inactive); in the assay with SNB-78 it was > 100 µM (inactive); in the assay with KM-20L2, > 100 µM (inactive). Also, the GI50 in the assay on XF498 is 6.49 µM (inactive).
`O=[N+]([O-])c1ccc(C2N3CCCCC3[C@@H]3c4[nH]c5ccccc5c4CCN23)cc1` (some centres not stated): the GI50 in the assay with DLD-1 was 10.8 µM (inactive); in the assay with DMS-273, 17.5 µM (inactive); with RXF 631, 28.5 µM (inactive); with HOP-18, 67.3 µM (inactive); in the assay with DMS-114 it was 7.19 µM (inactive); with SNB-78 it was 3.96 µM (inactive). The GI50 in the assay with KM-20L2 is 11 µM (inactive); in the assay with XF498, 17.8 µM (inactive).
